Assay results as given in patent US11690841B2, “Glycolysis-activating agents for treatment or prevention of disease” (Queen Mary University of London, priority 2017, dated 2023).

Assays:
[1] = tested on: Tregs; test: PCNA expression by Tregs stimulated with allogeneic DCs (flow cytometry); assay type: cell-based, mouse; details: 1 μM, 2 hours
Experimental: (§1) FIG. 20. A: AZD1656 (GCK activator, 1 μM) and vehicle-treated Tregs (2 hours in insulin-free medium) were labeled with different intravital fluorescent dyes, and co-injected into syngeneic recipients that had received IFN-γ i.p. 48 hours earlier. Cells were recovered from the peritoneum or spleen after 24 hours and analyzed by flow cytometry. Representative dot plots are shown. The bar graphs indicate mean absolute number of labeled cells retrieved±SD (n=4 N=2). B-C: expression of PCNA by Tregs stimulated with allogeneic DCs following treatment with either AZD1656 (B) or Clotrimazole (CLT, 1 μM, 2 hours, C) or vehicle alone was measured by flow cytometry. NS, non-stimulated control Tregs. Representative histograms are shown. (n=3, N=3).
Intracellular staining. For intracellular Foxp3 staining, eBioscience Anti-Mouse/Rat Foxp3 Staining Set APC (clone FJK-165, Thermo Fisher Scientific Cat #17-5773-82) kit was used. Cells were resuspended (10^7/ml) and stained with surface antigens as mentioned above and then fixed/permeabilized for 30 minutes at 4° C. using Fixation/Permeabilization working solution made from mixing 1 part of the fixation/permebilization concentrate (eBioscience, Cat #00-5123) to 3 parts of the fixation/permebilization diluent (eBioscience, Cat #00-5223). […]

[2] = tested on: Tregs; test: ECAR of Treg cells activated with recombinant ICAM-1; assay type: cell-based, mouse; details: Tregs activated with recombinant ICAM-1
Experimental: A: ECAR of Treg cells activated with recombinant ICAM-1 or Fc control. CLT or vehicle, as well as other glycolysis-affecting drugs were added as indicated. […] Measurement of ECAR and OCR. Real time bioenergetics analysis of extracellular acidification rates (ECAR) and oxygen consumption rates (OCR) of T cells subjected to antibody stimulation was performed using the XF analyzer (Seahorse biosciences). T cells were cultured in serum free, unbuffered XF assay medium (Seahorse biosciences, Cat #102365-100) for 1 hour. The cells were then seeded (6×10^5/well) into the seahorse XF24 cell plates for analysis. Perturbation profiling of the use of metabolic pathways by T cells was achieved by the addition of oligomycin (1 μM), FCCP (1 μM), Antimycin A (1 μM), rotenone (1 μM), D-glucose (10 mM), 2-Deoxy-D-glucose (2DG, 50 mM; all from Seahorse biosciences, Cat #103020-100 and 103015-100). Experiments with the Seahorse system were done with the following assay conditions: 2 min mixture; 2 minutes wait; and 4-5 min measurement. Metabolic parameters were calculated. Experiments were done in at least triplicate wells.

[3] = tested on: Tregs; test: T cell recruitment in the peritoneum (labelled drug-treated Tregs injected into IFN-γ-treated syngeneic recipients); assay type: in vivo, mice; details: for Treg migration / trafficking in vivo: drug-treated PKH26-labelled Tregs injected i.v. into recipients given IFN-γ i.p. 48 hours earlier, harvested after 24 hours
Experimental: FIG. 3. Drug- or vehicle-treated Tregs labeled with the fluorescent intravital dye PKH26 were injected i.v. into syngeneic recipients treated with IFN-γ i.p. 48 hours earlier. Cells were harvested from the indicated tissues after 24 hours and analyzed by flow cytometry. Representative dot plots from 3 animals are shown in panels A and C. The mean absolute number of labeled cells recovered in 4 animals±SD is shown in panels B and D. (N=1)
as §1
FIG. 21. A: ECAR of Treg cells activated with recombinant ICAM-1 or Fc control. CLT or vehicle, as well as other glycolysis-affecting drugs were added as indicated. B: CLT- or vehicle-treated Tregs underwent CD28 or isotype-matched antibody-stimulation, labelled with different intravital fluorescent dyes and injected i.v. in syngeneic recipients that had received IFN-γ i.p. 48 hours earlier. Cells were recovered from the peritoneum (P) or spleen (S) after 24 hours and analyzed by flow cytometry. Representative dot plots are shown. The column graphs indicate mean absolute number of labeled cells retrieved±SD (n=3 N=2). * p<0.05 ***p<0.005; ****p<0.001.
T cell recruitment in the peritoneum. To observe in vivo recruitment of T cells we used the previously described model of T cell recruitment (Mirenda et al., 2007). Either PKH26 or CFSE or DDAO-SE-labelled T cells (10^7) were injected intravenously (i.v.) into mice that hd received IFN-γ (600U) via intraperitoneal injection (i.p.) 48 to 72 hours earlier. Labeled T cells recovered via peritoneal lavage were analyzed 16 hours later using flow cytometry. In addition, localization of Tregs to the spleen, where entry occurs in a passive manner (Fu et al., 2016), was analyzed to ensure that similar numbers/proportion of labeled cells were injected or co-injected in all recipients (internal control).

[4] = tested on: CD3/CD28-stimulated Tconv cells; test: ECAR and OCR fluxometry (Seahorse) of anti-CD3 plus anti-CD28 stimulated CD4+ T cells; assay type: cell-based, mouse
Experimental: Real time analysis of the ECAR and OCR of CD4+ T cells stimulated for 24 hours with anti-CD3 plus anti-CD28 antibodies was performed using fluxometry. Wells were injected first with CLT or Vehicle. A second injection followed at the time point indicated (dashed line) introducing D-glucose into the wells. Subsequently, modulators of glycolysis (A) or cellular respiration (B) were sequentially injected at the indicated time points. […] OCR=Oxygen Consumption Rate: indirect measure of mitochondrial respiration and fatty acid oxidation (FAO). Measurement of ECAR and OCR. Real time bioenergetics analysis of extracellular acidification rates (ECAR) and oxygen consumption rates (OCR) of T cells subjected to antibody stimulation was performed using the XF analyzer (Seahorse biosciences). T cells were cultured in serum free, unbuffered XF assay medium (Seahorse biosciences, Cat #102365-100) for 1 hour. The cells were then seeded (6×10^5/well) into the seahorse XF24 cell plates for analysis. Perturbation profiling of the use of metabolic pathways by T cells was achieved by the addition of oligomycin (1 μM), FCCP (1 μM), Antimycin A (1 μM), rotenone (1 μM), D-glucose (10 mM), 2-Deoxy-D-glucose (2DG, 50 mM; all from Seahorse biosciences, Cat #103020-100 and 103015-100). […] Metabolic parameters were calculated. […]

[5] = tested on: Tregs; test: Treg trans-endothelial migration and chemotaxis transwell assays; assay type: cell-based, mouse; details: Tregs pre-treated with drug for 4 hours; through IFN-γ-treated EC monolayers or in response to CCL22 / CXCL10
Experimental: FIG. 1. Glycolysis fuels Treg migration. Ex vivo expanded Tregs pre-treated with the indicated drugs or vehicle for 4 hours were left to migrate through 3 μm-pore transwells layered with IFN-γ-treated syngeneic EC monolayers (A-B) or in response chemokine CCL22 through bare filter 5 μm-pore transwells (C-D). Results are expressed as percentage of migrated cells after 24 hours (A-B, n=4, N=2) or at the indicated time-points (C, n=3)±SD. The fold increase in migration was calculated by dividing experimental migration by spontaneous migration measured at 6 hours in two experiments of identical design performed in triplicates±SD.
FIG. 2. Activated Treg phenotype and function and effect of exposure to metabolism-modifying drugs. Tregs were expanded as previously described (Fu et al., 2014). A-B Tregs were treated with the indicated metabolism-targeting drugs for 4-6 hours and extensively washed. Migration of drug-exposed Tregs in response to CXCL10 (300 ng/ml) was assessed by a transwell-based assay. Results are expressed as the mean percentage of migrated cells at the indicated time points±SD. Data obtained at 6 hours from three independent experiments of identical design and normalized by spontaneous migration±SD are shown in panel B. *P<0.05.
FIG. 5. Tregs were treated with the indicated metabolism-targeting drugs for 4-6 hours, extensively washed and cultured overnight in medium alone. Migration of drug-exposed Tregs in response to CCL22 (300 ng/ml, A-B) CXCL10 (300 ng/ml, C-D) was assessed by a 6 hr chemokinesis transwell assay ([…]). Results are expressed as the mean percentage of migrated cells in a typical experiment performed in triplicate±SD (A, C). […]
Lymphocyte trans-endothelial migration and chemotaxis assays. […] The number of migrated T cells was determined by a hemocytometer counting of the cells present in the well media at different time points over a 24-h period. […] The number of migrated cells was determined by a hemocytometer.

[6] = tested on: B6Kd skin allograft; test: Survival of B6Kd-derived skin grafts transplanted in C57BL/6 recipients; assay type: in vivo, C57BL/6 mice; details: 10 mg/kg twice daily (20 mg/kg daily) for 2 weeks after transplantation
Source text: C57B16 mice received a B6Kd skin graft or syngeneic skin as a control. […] To establish the selectivity of GCK usage by Tregs to sustain their motility, we compared the effect of pharmacological activation of GCK on the survival of B6Kd-derived skin grafts transplanted in C57BL/6 recipients. […] This schedule was designed in order to promote migration of endogenous Tregs during the early stages of the alloresponse. Control groups received saline solution with vehicle alone.

SMILES | Treg division (PCNA expression / upregulation) [1] | Treg migration / motility in vitro [5] | Treg migration / trafficking in vivo [3] | further results
Clc1ccccc1C(c1ccccc1)(c1ccccc1)n1ccnc1 [CLT, Clotrimazole] | effective at inhibiting |  |  | rICAM-1-mediated induction of glycolysis (ECAR) [2]: did not affect; Treg migration to inflamed peritoneum in vivo ([3]; drug-treated Tregs with CD28 or isotype antibody stimulation, injected i.v., recovered after 24 hours): did not affect; Glycolytic flux (ECAR) [4]: inhibits; Respiration (OCR) [4]: inhibits
O=CC[C@@H](O)[C@H](O)[C@H](O)CO [2-DG, 2-deoxyglucose] |  | migrated inefficiently | migrated inefficiently | 
CN(C)C(=N)N=C(N)N [metformin] |  | increased Treg motility | increased | 
CCOC(=O)[C@@]1(CCCCCCOc2ccc(Cl)cc2)CO1 [Etomoxir] |  | Treg migration does not require fatty acid oxidation |  | 
COC[C@H](C)Oc1cc(Oc2cnc(C(=O)N3CCC3)cn2)cc(C(=O)Nc2cnc(C)cn2)c1 [AZD1656, 3-[5-(azetidine-1-carbonyl)pyrazin-2-yl]oxy-5-[(2S)-1-methoxypropan-2-yl]oxy-N-(5-methylpyrazin-2-yl)benzamide] | did not affect |  |  | Treg migration to the inflamed tissue ([3]; Tregs treated with 1 μM for 2 hours in insulin-free medium, co-injected with vehicle-treated Tregs, peritoneum after 24 hours): significantly enhanced; Skin graft rejection [6]: significantly delays
